For orientation: IC50 means the midpoint of a concentration-inhibition curve.

These results are taken from ChEMBL document CHEMBL3046579, “Synthesis, anticancer and MRP1 inhibitory activities of 4-alkyl/aryl-3,5-bis(carboethoxy/carbomethoxy)-1,4-dihydro-2,6-dimethylpyridines” (Med Chem Res, 2013).

Data set [1] is described as follows: Cytotoxicity against Homo sapiens (human) MDA-MB cells assessed as cell viability after 48 hr by MTT assay. The data set is classed as functional, cell-based. A general note: Tetrazolium assays rely on reduction of a dye to a coloured formazan, in cell work by metabolically active cells.
A further data set deals with HT-29. As to the kind of experiment: Cytotoxicity against Homo sapiens (human) HT-29 cells assessed as cell viability after 48 hr by MTT assay. Format: functional, cell-based.
Data set [2] addresses T1, Multidrug resistance-associated protein 1 (Homo sapiens, UniProt P33527). The data set can be described thus: Inhibition of Homo sapiens (human) MRP1 expressed in Sf9 cell membranes assessed as decrease in N-ethyl-maleimide-glutathione-induced inorganic phosphate production at 1 to 1000 uM by spectrophotometric analysis in presence of glutathione.
Data set [3] has as its target T1, Multidrug resistance-associated protein 1. The data set can be described thus: Inhibition of Homo sapiens (human) MRP1 expressed in Sf9 cell membranes assessed as decrease in N-ethyl-maleimide-glutathione-induced inorganic phosphate production by spectrophotometric analysis in presence of glutathione.
Data set [4] deals with T2, MRP1 (Homo sapiens, UniProt P33527). As to the kind of experiment: Inhibition of Homo sapiens (human) MRP1 expressed in Sf9 cell membranes assessed as decrease in N-ethyl-maleimide-glutathione-induced inorganic phosphate production at 50 uM by spectrophotometric analysis in presence of glutathione relative to control. The note with it: Sf9 cell membranes expressing human MRP1, probe N-ethyl-maleimide-glutathione, read-out: Imax.
T2 sequence (P33527 whole entry): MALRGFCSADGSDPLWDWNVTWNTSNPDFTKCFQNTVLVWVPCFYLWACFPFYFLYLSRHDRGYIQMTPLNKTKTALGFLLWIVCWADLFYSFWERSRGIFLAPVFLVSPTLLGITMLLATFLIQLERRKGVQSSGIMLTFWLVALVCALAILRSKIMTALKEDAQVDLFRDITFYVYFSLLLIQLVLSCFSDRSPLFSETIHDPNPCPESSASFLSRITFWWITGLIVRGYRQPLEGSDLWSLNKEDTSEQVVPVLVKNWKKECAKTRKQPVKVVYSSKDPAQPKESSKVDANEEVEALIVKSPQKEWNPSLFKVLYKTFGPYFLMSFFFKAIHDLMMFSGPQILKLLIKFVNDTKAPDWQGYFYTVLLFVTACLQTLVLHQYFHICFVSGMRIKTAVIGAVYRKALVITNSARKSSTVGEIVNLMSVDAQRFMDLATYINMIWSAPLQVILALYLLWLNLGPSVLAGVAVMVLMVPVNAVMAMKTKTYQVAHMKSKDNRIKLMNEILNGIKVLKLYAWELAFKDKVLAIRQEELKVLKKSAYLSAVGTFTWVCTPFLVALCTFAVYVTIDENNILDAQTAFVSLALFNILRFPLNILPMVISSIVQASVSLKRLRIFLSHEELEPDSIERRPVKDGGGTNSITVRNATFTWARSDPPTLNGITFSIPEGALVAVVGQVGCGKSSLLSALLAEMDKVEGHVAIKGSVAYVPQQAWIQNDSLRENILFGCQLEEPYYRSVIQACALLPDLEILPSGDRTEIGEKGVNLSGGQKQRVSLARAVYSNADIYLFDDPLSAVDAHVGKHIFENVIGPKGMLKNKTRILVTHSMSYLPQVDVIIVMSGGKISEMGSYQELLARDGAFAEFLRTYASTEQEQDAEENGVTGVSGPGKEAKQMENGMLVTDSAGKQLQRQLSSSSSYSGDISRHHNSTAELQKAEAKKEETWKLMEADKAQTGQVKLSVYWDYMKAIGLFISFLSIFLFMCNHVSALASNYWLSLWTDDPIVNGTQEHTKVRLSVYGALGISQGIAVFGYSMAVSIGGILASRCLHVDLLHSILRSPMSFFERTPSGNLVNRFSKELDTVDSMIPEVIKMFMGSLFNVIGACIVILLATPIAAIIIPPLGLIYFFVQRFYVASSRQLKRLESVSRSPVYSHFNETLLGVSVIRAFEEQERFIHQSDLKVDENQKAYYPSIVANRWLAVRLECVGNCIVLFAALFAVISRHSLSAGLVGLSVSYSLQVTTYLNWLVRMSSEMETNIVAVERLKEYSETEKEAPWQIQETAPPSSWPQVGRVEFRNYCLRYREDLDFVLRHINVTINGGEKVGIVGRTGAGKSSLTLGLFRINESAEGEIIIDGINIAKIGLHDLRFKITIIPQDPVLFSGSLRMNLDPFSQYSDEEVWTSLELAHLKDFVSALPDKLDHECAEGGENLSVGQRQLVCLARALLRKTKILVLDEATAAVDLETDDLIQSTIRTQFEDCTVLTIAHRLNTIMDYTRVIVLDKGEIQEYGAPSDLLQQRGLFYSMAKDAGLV

The target in data set [5] is T2, MRP1. The data set can be described thus: Inhibition of Homo sapiens (human) MRP1 expressed in Sf9 cell membranes assessed as decrease in N-ethyl-maleimide-glutathione-induced inorganic phosphate production at 10 uM by spectrophotometric analysis in presence of glutathione relative to control. The settings on record: Sf9 cell membranes expressing human MRP1, probe N-ethyl-maleimide-glutathione.

The nature of data set [6]: Cytotoxicity against Homo sapiens (human) HSG cells. Format: functional, cell-based.
A further data set has as its system HSC-2. The data set can be described thus: Cytotoxicity against Homo sapiens (human) HSC2 cells. The data set is classed as functional, cell-based.
Setting [7] is: Homo sapiens, MDA-MB, 48 h, read-out: IC50.
The mark [8] stands for this setting: Homo sapiens, HT-29, 48 h, read-out: IC50.

Each structure is given as a SMILES string.

T1 sequence (P33527 whole entry): as above

`CCCC1C(C(=O)OCC)=C(C)NC(C)=C1C(=O)OCC`: the IC50 in data set [1] (setting [7]) is 500 µM; in the data set on HT-29 (ht-29), “Not Active”. Moreover, in data set [2], the “inhibition (INH)” value was “Not Active”.
As to `CCOC(=O)C1=C(C)NC(C)=C(C(=O)OCC)C1c1ccccc1`, the IC50 entry (in data set [1] (mda-mb); with HT-29 (ht-29)) was “Not Active” each time.
Take `CCOC(=O)C1=C(C)NC(C)=C(C(=O)OCC)C1c1cccc([N+](=O)[O-])c1`: the IC50 in data set [1] (setting [7]) was determined as 244 µM; with HT-29 (setting [8]) it was 500 µM. In addition, the “inhibition (INH)” value in data set [2] is on record as “Not Active”.
For `CCOC(=O)C1=C(C)NC(C)=C(C(=O)OCC)C1c1ccc(Cl)cc1`, the IC50 was found to be 268 µM in data set [1] (setting [7]), 16 µM in data set [3] and 262 µM with HT-29 (setting [8]). Also, on MRP1 [4], the inhibition at 50 µM came out at 65%. Also, the inhibition at 10 µM on MRP1 [5] was found to be 47%.
With `CCOC(=O)C1=C(C)NC(C)=C(C(=O)OCC)C1c1ccc(C)cc1`, the IC50 in data set [1] (setting [7]) is 500 µM; with HT-29 (setting [8]), 310 µM.
For `COC(=O)C1=C(C)NC(C)=C(C(=O)OC)C1c1ccc(Cl)cc1`, the IC50 in data set [1] (setting [7]) is 460 µM; in the data set with HT-29 (ht-29), “Not Active”. For the same molecule, the “inhibition (INH)” value in data set [2] is “Not Active”.
Consider `COC(=O)C1=C(C)NC(C)=C(C(=O)OC)C1c1ccc(OC)cc1`, for which the concentration for half-maximal inhibition (IC50) entry is “Not Active” in data set [1] (mda-mb) and 452 µM with HT-29 (setting [8]).
For `CCOC(=O)C1=C(C)NC(C)=C(C(=O)OCC)C1c1ccc(OC)cc1`, the IC50 in data set [1] (setting [7]) is 331 µM; in the data set on HT-29 (ht-29), “Not Active”. Besides, in data set [2], the “inhibition (INH)” value is on record as “Not Active”.
In the case of `COC(=O)C1=C(C)NC(C)=C(C(=O)OC)C1c1ccccc1`, the IC50 result (in data set [1] (mda-mb); in the data set with HT-29 (ht-29)) was “Not Active” each time.
For the molecule `CCCCC1C(C(=O)OCC)=C(C)NC(C)=C1C(=O)OCC`, the IC50 in data set [1] (setting [7]) was 350 µM; in the data set on HT-29 (ht-29) it was “Not Active”. For the same molecule, in data set [2], the “inhibition (INH)” value is on record as “Not Active”.
With `CCCC1C(C(=O)OC)=C(C)NC(C)=C1C(=O)OC`, the half-inhibitory concentration (IC50) entry (in data set [1] (mda-mb); with HT-29 (ht-29)) was “Not Active” in each case.
On to `CCCCC1C(C(=O)OC)=C(C)NC(C)=C1C(=O)OC`, for which the concentration for half-maximal inhibition (IC50) result in data set [1] (mda-mb) was “Not Active”; with HT-29 (setting [8]) it was 500 µM.
Take `COC(=O)C1=C(C)NC(C)=C(C(=O)OC)C1c1ccc(C)cc1`: the results for the IC50 (in data set [1] (setting [7]); in the data set with HT-29 (ht-29)) were 500 µM and “Not Active”, respectively. The “inhibition (INH)” value in data set [2] is “Not Active”.
On to `CC1=C(C(=O)c2ccccc2)C(c2ccccc2C(F)(F)F)C(C(=O)c2ccccc2)=C(C)N1`, for which the IC50 (in data set [6]; with HSC-2) was 8.7 µM each time.
On to `CC1=C(C(=O)c2ccccc2)C(c2ccccc2Cl)C(C(=O)c2ccccc2)=C(C)N1`, for which the values for the IC50 (in data set [6]; in the data set with HSC-2) were 28 µM and 7 µM, respectively.
